Laboratory results as given in US20200276312A1, “Elimination of chronic pain by chronic activation of adenosine receptor type A1 in peripheral sensory neurons” (University of Rochester, priority 2019, published 2020).
Entries after “also recorded” stand apart in the source; their conditions may differ.

Experiments:
[1] = test system: mice with MIA-induced inflammatory chronic pain; assay: von Frey mechanical sensitivity in MIA-induced inflammatory chronic pain; type: in vivo, mouse; conditions: for acupuncture-induced acute analgesia: agent applied at ST36 prior to each acupuncture; for acupuncture-induced RHyp (resolution of hypersensitivity): agent given with repetitive acupuncture (DPCPX, topical lidocaine at ST36; caffeine oral 0.1 mg/ml)
Source text: To assess if repetitive application of acupuncture produces an extension of transient analgesia or RHyp, inflammatory chronic pain was induced by administering monosodium iodoacetate (MIA) in the hind limb knee joints of mice (FIG. 1A and FIG. 5A), in which spreading of hypersensitivity (hyperalgesia and allodynia) in the limb develops in 3 weeks and never wears off thereafter (Combe et al., 2004, Neurosci Lett 370:236-240; Ogbonna et al., 2015, Age (Dordr) 37:9792; Rahman & Dickenson, 2015, Neuroscience 295:103-116). […] Manual acupuncture, given twice a week at ST36, induced acute analgesia in weeks 2 and 3 as well. […] This delayed-onset reduction of hypersensitivity was not a result of loss of the knee arthritis pathology, as indicated by the synovial membrane hypertrophy (FIG. 5B). […] In order to identify the cell type whose A1R mediates acute analgesia and RHyp, transgenic mice with conditional deletion of A1R selectively in sensory neurons were generated (Akopian et al, 1996, Nature 379:257-262; Stirling et al., 2005, Pain 113:27-36). (FIG. 5C). […] Both acute analgesia and RHyp were absent with repetitive administration of vehicle (FIG. 5D). […] Combined, chronic activation of A1R in sensory neurons resolves sensitization state, which can be induced by repetitive acupuncture.
Mechanical sensitivity was measured using a slightly modified Semmes-Weinstein von Frey Aesthesiometer touch test. Before beginning the measurement session, animals were acclimated to the acrylic chamber (IITC Life Science, Woodland Hills, Calif.) for 60 minutes per day for two days. Baseline mechanosensitivity was measured at least twice on different days to validate the stable, low mechanosensitivity in all mice prior to pain induction administered on the day of the second measurement. The average of the two measurements was recorded as the baseline sensitivity value. Pain-induced hyper-mechanosensitivity was evaluated three weeks after the intra-articular administration of monosodium iodoacetate (MIA, Sigma-Aldrich, 60 mg/ml, 5 μl) to a knee joint. Of note, most other inflammatory pain models cannot stably sustain hypersensitivity over months. The evaluation was performed by gently applying a thin filament of 0.04 g force to the hind paw of the animals, and the rapid retraction or tapping of the foot was counted as a positive response. A total of six trials were given to a paw in one measurement session with an interval of at least 5 min between each trial. Positive responses in the all trials were recorded, and the data were represented as the percent of positive responses. Percent change in mechanosensitivity by treatments was obtained by subtracting values of percent responses before acupuncture from that after acupuncture for each animal. […] All behavioral measurements were done at the same time of the day during the 12-hour light cycle.
For acupuncture treatment, animals were placed in a restrainer with the hind leg, ipsilateral to the knee inflammation, secured and loosely stretched. An acupuncture needle (0.20 mm; DBC Spring, Lhasa OMS, Weymouth, Mass.) was gently inserted to ST36 Zusanli point (3-4 mm below and 1-2 mm lateral from the midline from the knee) at a depth of 1.5 mm,^40 then slowly rotated for 1 minute every 3-4 minutes for a 20-minute session while the mice were awake. For sham treatment, the acupuncture needle was inserted in the same way, but then untouched for 20 minutes. The animals were immediately transferred back to the chamber and acclimated for at least 15 minutes before the post-treatment mechanosensitivity measurements. In selected experiments, solution of 2-Chloro-N^6-cyclopentyladenosine (CCPA, Sigma-Aldrich, 100 μM, 5 μl) was administered to ST36 at a depth of 1.5 mm instead of acupuncture needle. 8-Cyclopentyl-1,3-dipropylxanthine (DPCPX, Sigma-Aldrich, 100 µM, 5 μl) was administered to ST36 at a depth of 1.5 mm prior to acupuncture needle insertion. […]

sciatic nerve tissue = assay: CCPA permeability into sciatic nerve in vivo; parameters: species or system mouse
Method: For quantification of CCPA permeability, parafilm (7×20 mm) was placed underneath of the exposed sciatic nerve which was then covered with a custom-made enclosure (6.5 mm length plastic tube, 1.5 mm inner diameter with 120° opening) to control the length of nerve exposed to the drugs. The enclosure surrounding the nerve was gently filled with 10 μl of CCPA (5 mM) alone or a mixture of CCPA and an ENT1/2 inhibitor, 6-S-[(4-Nitrophenyl)methyl]-6-thioinosine (NBMPR, Thermo Fisher, 1 mM). After 90 minutes, the nerve was washed with PBS, extracted (6 mm length), and stored at −80° C. Tissues were homogenized in methanol using FastPrep-24 5G with CoolPrep adapter (MP Biomedicals) and incubated for 12-14 hours at −20° C. After centrifuging at 12,000 g for 15 minutes, the supernatants were dried down in CentriVap concentrator and then reconstituted in 50% DMSO. In the pilot studies, it was confirmed that highest recovery rate of CCPA was obtained with homogenization in methanol, compared to that in ethanol or HEPES buffer solution followed by ultrafilteration, and recovery rate was calculated as 95.19%. The concentrations of CCPA in samples were quantified by HPLC.

[2] = in vitro release of CCPA from Fmoc-F5-Phe cation hydrogel (HPLC); type: physicochemical; conditions: 37° C.
Method: To determine the amount of CCPA released from a 1 mL hydrogel of the Fmoc-F^5-Phe cation (33.7 mM Fmoc-F^5-Phe cation, 114 mM NaCl, 0.5 mM CCPA) as a function of time, 1.5 mL of isotonic water (114 mM NaCl) was slowly added to the top of the gel to avoid disrupting the gel. This bilayer mixture was sealed in a screw top vial and placed in a 37° C. oven. Aliquots (80 μL) were removed 20 min, 40 min, 60 min, 2 h, 3 h, 4 h, 6 h, 30 h, 54 h, and 78 h after the salt water was initially layered over the gel. After removing each aliquot, the salt solution was immediately replaced with an equal volume of salt solution (80 μL, 114 mM NaCl). Aliquots were assessed by injection onto analytical HPLC instrument in order to determine the amount of CCPA that had been released. A Shimadzu 2010A HPLC instrument equipped with a Phenomenex Gemini 5 micron C18 column (250×4.6 mm) with a guard column was used to determine concentration of the CCPA released into the 1.5 mL salt solution by correlation of integrated peak area to a previously constructed CCPA concentration curve. This concentration was converted to mol of CCPA and the diffusion coefficient was determined using Equation 1. […]

[3] = test system: mice with CFA-induced acute inflammatory pain; assay: ankle circumference (swelling) in CFA model; type: in vivo, mouse; conditions: day five, compared to CFA-induced group that received F5-Phe gel
[4] = test system: mice with CFA-induced acute inflammatory pain; assay: von Frey mechanical sensitivity in CFA-induced acute inflammatory pain; type: in vivo, mouse

OC[C@H]1O[C@@H](n2cnc3c(NC4CCCC4)nc(Cl)nc32)[C@H](O)[C@@H]1O [CCPA, 2-Chloro-N^6-cyclopentyladenosine]
response of hypersensitivity (acute analgesia, RHyp) ([1]; A1R conditional knockout (A1RcKO) mice, repetitive administration): unresponsive | re-emergence of hypersensitivity ([1]; WT animals, post-treatment observation period): never re-emerged | RHyp ([1]; repetitive CCPA solution (100 μM, 5 μl) at ST36 instead of acupuncture): induced RHyp | CCPA entry into sciatic nerve (sciatic nerve tissue; CCPA 5 mM applied outside the nerve in vivo, 90 minutes): found inside the sciatic nerve tissue | diffusion coefficient of CCPA release ([2]; 1 mL gel, 33.7 mM gelator, 500 μM CCPA, 114 mM NaCl, first 200 minutes): 3.15×10^−9 m^2 min^−1 | duration of continuous release from F5-Phe hydrogel ([2]; CCPA 500 μM): 15 days

O=C(O)Cc1ccccc1Nc1c(Cl)cccc1Cl [Dcf, diclofenac]
ankle circumference [3]: slightly lower circumferences | mechanical sensitivity ([4]; from 24 h after injection over the final 13 days, 0.1 mg/mL, 10 μL): ~80% | relative percentage of hind paw sensitivity ([4]; within hours of injection, versus gel lacking diclofenac): decreased significantly

CCCC(=O)Nc1ncnc2c1ncn2[C@@H]1O[C@@H]2COP(=O)(O)O[C@H]2[C@H]1OC(=O)CCC [dbcAMP, N^6,O^2-dibutyryladenosine 3,5-cyclic monophosphate]
delay of onset of RHyp ([1]; co-delivered with CCPA by F5-Phe, submuscular at ST36): 3 weeks

O=[N+]([O-])c1ccc(CSc2ncnc3c2ncn3[C@@H]2O[C@H](CO)[C@@H](O)[C@H]2O)cc1 [NBMPR, 6-S-[(4-Nitrophenyl)methyl]-6-thioinosine]
effect on CCPA entry into sciatic nerve (sciatic nerve tissue; NBMPR 1 mM mixed with CCPA 5 mM): reduced the CCPA entry

CCN(CC)CC(=O)Nc1c(C)cccc1C [lidocaine]
acupuncture-induced acute analgesia [1]: loss of acupuncture-induced acute analgesia | acupuncture-induced RHyp (resolution of hypersensitivity) [1]: RHyp was induced | hind paw sensitivity ([1]; topical 5% lidocaine at ST36 without acupuncture): no changes in hind paw hypersensitivity; also recorded: did not modulate hind paw sensitivity

COc1cccc(C2(O)CCCCC2CN(C)C)c1 (stereo not drawn) [tramadol]
acute analgesia and RHyp ([1]; repetitive systemic administration): gradual loss of acute analgesia instead of RHyp

CCCn1c(=O)c2[nH]c(C3CCCC3)nc2n(CCC)c1=O [DPCPX, 8-Cyclopentyl-1,3-dipropylxanthine]
acupuncture-induced acute analgesia [1]: inhibited the manifestation | acupuncture-induced RHyp (resolution of hypersensitivity) [1]: inhibited the manifestation

Cn1c(=O)c2c(ncn2C)n(C)c1=O [caffeine]
acupuncture-induced RHyp (resolution of hypersensitivity) [1]: abolished
